≈ marks a conversion by molar mass, not a printed value.
Columns and labels:
KB [1] = assay: Cytotoxic activity against vincristine-resistant human oral epidermoid carcinoma cell line (KB/VJ300); assay type: functional, cell-based
KB [2] = assay: Cytotoxic activity against vincristine-sensitive human oral epidermoid carcinoma cell line(KB/S); assay type: functional, cell-based

SMILES	IC50 (KB [1])	IC50 (KB [2])
CCOC1[C@H]2C[C@H]([C@H](C)O)[C@@H]3N1CCc1c([nH]c4ccccc14)[C@]3(C(=O)OC)C2 (some centres not stated)	> 25 µg/mL	> 25 µg/mL
COC(=O)[C@@]12C[C@@H]3C[C@H]([C@@H](C)O)[C@@H]1N(CCc1c2[nH]c2ccccc12)C3	3.5 µg/mL (≈ 9.87 µM)	25 µg/mL (≈ 70.5 µM)
CC[C@H]1C[C@H]2C[C@@]3(C(=O)OC)c4[nH]c5ccc(OC)cc5c4CCN(C2C#N)[C@@H]13 (some centres not stated)	7 µg/mL (≈ 17.8 µM)	9.4 µg/mL (≈ 23.9 µM)
COC(=O)[C@@]12C[C@@H]3C[C@H]([C@@H](C)O)[C@@H]1N(CCc1c2[nH]c2cc(OC)ccc12)C3	> 25 µg/mL	> 25 µg/mL
COC(=O)[C@]12C[C@H]3CC4[C@H](C)OCN(CCc5c1n(c1ccccc51)C3O)[C@@H]42 (some centres not stated)	4 µg/mL (≈ 10.5 µM)	25 µg/mL (≈ 65.4 µM)
COC(=O)[C@]12C[C@H]3CC4[C@H](C)OCN(CCc5c1n(c1cc(OC)ccc51)C3=O)[C@@H]42 (some centres not stated)	> 25 µg/mL	> 25 µg/mL
COC(=O)N1c2ccccc2C23CCN4CCCC5(CCC12[C@](O)(C(=O)OC)C5)[C@H]43 (some centres not stated)	0.64 µg/mL (≈ 1.55 µM)	> 25 µg/mL
C[C@H](O)[C@H]1C[C@H]2C[C@H]3c4[nH]c5ccccc5c4CCN(C2)[C@@H]13	7.8 µg/mL (≈ 26.3 µM)	16.1 µg/mL (≈ 54.3 µM)
CCC1C[C@H]2C[C@@]3(C(=O)OC)c4[nH]c5ccccc5c4CCN(C2=O)[C@@H]13 (some centres not stated)	> 25 µg/mL	> 25 µg/mL
COC(=O)[C@@]12C[C@@H]3C[C@@H]([C@H](C)O)[C@@H]1NCCc1c2n(c2cc(OC)ccc12)[C@H]3O	> 25 µg/mL	> 25 µg/mL
CCOC1[C@H]2C[C@H]([C@@H](C)O)[C@@H]3N1CCc1c([nH]c4ccccc14)[C@]3(C(=O)OC)C2 (some centres not stated)	> 25 µg/mL	> 25 µg/mL
COC(=O)[C@@]12C[C@H]3C[C@@H](C(C)=O)[C@@H]1NCCc1c2n(c2ccccc12)C3O (some centres not stated)	2 µg/mL (≈ 5.43 µM)	25 µg/mL (≈ 67.9 µM)
CC[C@H]1C[C@H]2C[C@@]3(C(=O)OC)c4[nH]c5ccccc5c4CCN(C2C#N)[C@@H]13 (some centres not stated)	1.4 µg/mL (≈ 3.85 µM)	2.2 µg/mL (≈ 6.05 µM)
COC(=O)[C@@]12C[C@@H]3C[C@H]([C@H](C)O)[C@@H]1N(CCc1c2[nH]c2ccccc12)C3	8.5 µg/mL (≈ 24 µM)	> 25 µg/mL
CC[C@H]1C[C@H]2C[C@@]3(C(=O)OC)c4[nH]c5cc(OC)ccc5c4CCN(C2C#N)[C@@H]13 (some centres not stated)	1.1 µg/mL (≈ 2.8 µM)	1.9 µg/mL (≈ 4.83 µM)
CC[C@H]1C[C@@H]2C[C@@]3(C(=O)OC)c4c(c5ccccc5n4C2O)CCN[C@@H]13 (some centres not stated)	2.5 µg/mL (≈ 7.05 µM)	3.5 µg/mL (≈ 9.87 µM)
COC(=O)[C@@]12C[C@@H]3C[C@H]([C@@H](C)O)[C@@H]1N(CCc1c2[nH]c2ccccc12)C3=O	> 25 µg/mL	> 25 µg/mL
CC[C@H]1C[C@H](CO)C[C@@]2(C(=O)OC)c3[nH]c4ccccc4c3CCN[C@@H]12	> 25 µg/mL	> 25 µg/mL
COC(=O)[C@@]12C[C@@H]3C[C@H](C(C)(O)O)[C@@H]1N(CCc1c2[nH]c2cc(OC)ccc12)C3	14.5 µg/mL (≈ 36.2 µM)	> 25 µg/mL
CCOC1[C@H]2C[C@H](CC)[C@@H]3N1CCc1c([nH]c4ccccc14)[C@]3(C(=O)OC)C2 (some centres not stated)	13 µg/mL (≈ 34 µM)	> 25 µg/mL
CC[C@H]1C[C@@H]2CN3CCc4c([nH]c5ccccc45)C(C)(C2)[C@H]13	> 25 µg/mL	> 25 µg/mL
CC[C@H]1C[C@@H]2CN3CC[C@]4(O)C(=Nc5ccccc54)[C@](C(=O)OC)(C2)[C@H]13 [CORONARIDINE HYDROXYINDOLENINE]	> 25 µg/mL	> 25 µg/mL
CC[C@H]1C[C@@H]2CN3CCc4c([nH]c5ccccc45)[C@](C(=O)OC)(C2)[C@H]13 [CORONARIDINE]	2.6 µg/mL (≈ 7.68 µM)	11.5 µg/mL (≈ 34 µM)
CC[C@H]1C[C@@H]2CN3CCc4c([nH]c5cc(OC)ccc45)[C@](C(=O)OC)(C2)[C@H]13 [ISOVOACANGINE]	> 25 µg/mL	> 25 µg/mL
COC(=O)[C@@]12C[C@@H]3C[C@H]([C@H](C)O)[C@@H]1N(CCc1c2[nH]c2cc(OC)ccc12)C3 [ISOVOACRISTINE]	18.8 µg/mL (≈ 48.9 µM)	> 25 µg/mL
CC[C@H]1C[C@@H]2CN3CCc4c([nH]c5ccc(OC)cc45)[C@](C(=O)OC)(C2)[C@H]13 [VOACANGINE]	> 25 µg/mL	> 25 µg/mL

Reference: ChEMBL document CHEMBL1137185, “Cytotoxic effects and reversal of multidrug resistance by ibogan and related indole alkaloids” (Bioorg Med Chem Lett, 2004)
